Test results reported in patent US11214803B2, “Modulators of YAP1 expression” (Ionis Pharmaceuticals, Inc., priority 2019, dated 2022).
Strand notation (5' to 3'): a small letter for the sugar, then the base; units joined by * are phosphorothioate-linked, units joined directly phosphodiester-linked; [ ] holds rarer units or linkages, { } end groups; capitals alone tell only the bases. k = constrained ethyl (cEt); [5mC] = 5-methylcytosine; d = 2'-deoxy (DNA)

Test system: Yap1 mRNA
Assay: Dose-dependent inhibition of human Yap1 in A-431 cells (Example 8, 10,000 cells per well, RTS4814)
Type: cell-based
Details: free uptake, approximately 48 hours, RTS4814; for Yap1 mRNA, % UTC: A-431 cells, 10,000 cells per well; for IC50: A-431 cells, linear regression on log/linear plot
How it was run: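 Yap1 mRNA, normalized to RIBOGREEN total RNA and expressed as % untreated control, was read with RTS4814 about 48 h after free-uptake oligonucleotide treatment of A-431 cells at 10,000 cells/well. IC50 derived by linear regression of log/linear data.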

| Substance | Yap1 mRNA, % UTC (31.3 nM) [% UTC] | Yap1 mRNA, % UTC (125.0 nM) [% UTC] | Yap1 mRNA, % UTC (500.0 nM) [% UTC] | Yap1 mRNA, % UTC (2000.00 nM) [% UTC] | IC50 [nM] |
| --- | --- | --- | --- | --- | --- |
| 1075686 (kG*kT*kA*dA*dT*dT*dA*d[5mC]*dA*dG*dT*dG*dT*k[5mC]*kT*k[5mC]; antisense) [compound 1075686] | 72 | 44 | 18 | 14 | 100 |
| 1074723 (antisense kG*kG*kT*dA*dA*dA*dG*dG*dA*dA*dG*dA*dT*k[5mC]*kT*k[5mC]) [compound 1074723] | 56 | 24 | 11 | 8 | < 20 |
| 1074407 (kT*kA*kA*dA*dG*dT*dA*dT*d[5mC]*dT*dT*dG*d[5mC]*kT*kG*kG; antisense) [compound 1074407] | 55 | 27 | 13 | 8 | < 20 |
| 1075876 (antisense kG*kT*kA*dT*dT*dT*dA*dT*dG*dA*dT*dG*dA*kT*kT*k[5mC]) [compound 1075876] | 47 | 20 | 7 | 5 | < 20 |
| 1076260 (k[5mC]*kT*kT*dA*dA*dT*dT*dT*dA*dA*d[5mC]*dT*d[5mC]*k[5mC]*kT*kG; antisense) [compound 1076260] | 61 | 30 | 12 | 5 | 50 |
| 1074537 (k[5mC]*kA*kG*dT*dA*dA*dT*dA*dG*d[5mC]*dT*d[5mC]*dT*kT*kT*k[5mC]; antisense) [compound 1074537] | 47 | 21 | 6 | 4 | < 20 |
| 1076489 (k[5mC]*kA*kA*dA*dA*dT*dA*dG*dG*dT*dG*dA*dG*kT*k[5mC]*kA; antisense) [compound 1076489] | 43 | 13 | 4 | 3 | < 20 |
| 1075748 (kG*kT*kA*dA*dA*dT*d[5mC]*dA*dA*dG*dT*dT*dG*k[5mC]*kA*kT; antisense) [compound 1075748] | 81 | 36 | 12 | 7 | 100 |
| 1074411 (kT*kG*kT*dG*dA*dA*dA*dG*dA*dG*dG*dT*d[5mC]*kA*kG*k[5mC]; antisense) [compound 1074411] | 47 | 20 | 8 | 6 | < 20 |
| 1076388 (antisense kG*kA*kA*dA*dT*dA*dT*dT*d[5mC]*dG*dA*dG*dA*kA*kG*kA) [compound 1076388] | 87 | 40 | 13 | 6 | 100 |
| 1076291 (kG*kA*kT*dT*dA*dA*dT*dG*dG*dT*dG*dG*d[5mC]*kA*kT*kT; antisense) [compound 1076291] | 75 | 26 | 8 | 5 | 100 |
| 1076523 (kA*kT*kT*dT*dA*dT*dA*dT*d[5mC]*dA*dG*dG*dT*k[5mC]*kA*kA; antisense) [compound 1076523] | 67 | 38 | 18 | 7 | 100 |
| 1074626 (DNA k[5mC]*kT*kG*dT*dT*dA*dT*dG*dA*dA*d[5mC]*d[5mC]*d[5mC]*kT*kT*kG) [compound 1074626] | 54 | 18 | 8 | 5 | < 20 |
| 1076486 (kG*kA*kA*dA*d[5mC]*dG*dA*dA*dA*d[5mC]*dG*dG*dG*kA*kA*kA; antisense) [compound 1076486] | 84 | 45 | 16 | 6 | 100 |
| 1076449 (k[5mC]*k[5mC]*kT*dT*dA*dT*dA*dA*dT*dG*d[5mC]*dA*dA*kT*k[5mC]*k[5mC]; antisense) [compound 1076449] | 44 | 8 | 3 | 2 | < 20 |
